Consider one molecule from patent US9290427B2, “Anti-invasive compounds” (Universiteit Gent, priority 2012, dated 2016).

In assay [1] the test system is MCF-7/6 mammary carcinoma cells. Kind of assay: chick heart invasion assay. Also noted: unit not given here. In kind it is cell-based, human. From the text:
“Anti-invasive” or “anti-invasive activity” is the ability to inhibit the invasiveness of tumor cells. Invasion by tumor cells is defined as the progressive occupation and destruction of their environment, and is the result of matrix degradation and directional cell motility. Anti-invasive activity of a compound is the ability to inhibit or block invasion, and can be assessed by counting the number of invading cells, by the depth of their invasion and/or by the amount of environmental destruction. Many assays in vitro can be applied to test for anti-invasive activity (for a complete list see Bracke et al. 2008). The three most popular ones are: • Chick heart invasion assay (Bracke et al., 2001, see details below). The cut-off value is between grade II (non-invasive) and grade III (invasive). […] Collagen gels, prepared on the bottom of plastic wells are covered with a test cell suspension, and incubated with liquid culture medium for 24 h. Invasion is evaluated with an inverted phase-contrast microscope, and is based on the percentage of cells showing extensions in the gel. […] Matrigel is a mixture of basement membrane components, and is applied as a semi-solid layer on top a filter with pores allowing the transgression of cells. The test cell suspension is seeded on top of the gel, and incubated for 1 day in a two-compartment chamber system. Invasion is then evaluated via the percentage of cells that are attached to the lower side of the filter.
In the chick heart invasion assay cancer cells are confronted with a fragment of normal tissue, so as not to neglect the contribution of the host tissue in the micro-ecosystem that governs tumor behavior. As such, precultured heart tissue fragments (PHFs), dissected from 9-day-old chicken embryos, may be confronted with aggregates of human invasive MCF-7/6 mammary carcinoma cells in the presence of a certain concentration of a test compound. After eight days, the interaction between the cancer cells and the PHF is evaluated histologically and classified along a 5-grades subjective scale (Bracke et al., 2001). Grades III and IV are typical for invasion, while grades 0, I and II correspond to absence of invasion. Compounds that inhibit invasion of confronting cancer cells i.e. from III/IV to 0/I/II, are determined as anti-invasive. Possible alternative assays generally known in the art are the type I collagen invasion assay, wound healing assay and the matrigel invasion assay.
“Anti-invasive” refers to the ability to inhibit invasion of the tumor or cancer cell into surrounding tissue (within or outside the organ of origin). […] This screening method confronts cancer cells with a fragment of normal tissue, so as not to neglect the contribution of the host tissue in the micro-ecosystem that governs tumor behavior. The interaction between the cancer cells and the normal tissue is evaluated histologically and classified along a 5-grades subjective scale. Grades III and IV are typical for invasion, while grades 0, I and II correspond to absence of invasion. Compounds that inhibit invasion of confronting cancer cells i.e. from III/IV to 0/I/II, are determined as anti-invasive. Possible alternative assays generally known in the art are the type I collagen invasion assay and the Matrigel invasion assay.
The potency of these molecules had been evaluated by means of the chick heart invasion assay, as described herein before.

For a further assay, the system named is 3T3-L1 cells. Nature of the assay: MTT test, 3T3-L1. Type of assay: cell-based, murine. Conditions: 10 μmol·L−1, 24 h. The procedure:
An MTT test provides an indication of cell viability, proliferation and activity through determination of the mitochondrial conversion of 3-(4,5-dimethylthiazol-2-yl)-2,5-diphenyltetrazolium bromide (MTT), a yellow salt, into formazan, a salt that precipitates under the form of blue crystals.
In concreto, 5,000 cells are seeded in a cup of a 96 well-plate, treated with the desired amount of the test substance, and incubated for a chosen period of time. Next, 40 μL of a filtered (0.2 μm) 5 mg·mL^−1 solution of MTT in PBS is added to the cup. After 2 h of incubation at 37° C. in the dark, all liquid is removed. The obtained formazan salts are dissolved in 200 μL of DMSO, whereupon optical density is measured at 490 nm.
In order to verify whether the antiproliferative effects of compound 49, witnessed in BLM and MCF-7/6 cells at high concentrations, were cell specific, additional SRB and MTT assays on a further five cell lines (HCT8-E11, TR146, FaDu, 3T3-L1 and CT5.3) were conducted (FIG. 8). The results for MCF-7/6 cells were added to facilitate comparison.
The CT5.3 cell line consists of human myofibroblasts which were isolated from a colon tumor (Van Hoorde et al., 1999). 3T3-L1 cells are murine fibroblasts, originating from embryo's of Swiss mice (Todaro and Green, 1963). HCT8-E11, FaDu and TR146 are human epithelial cancer cell lines. […]

As for `COc1cc(C(=O)/C=C/c2ccc(F)cc2)cc(OC)c1OC` [Compound 49, (2E)-3-(4-Fluorophenyl)-1-(3,4,5-trimethoxyphenyl)propenone], the “Actual in vitro activity class” value in assay [1] (compounds 37-51, Table 11) was −2 (about 0.01). For the same molecule, the Actual class in assay [1] (training set compounds 37-51, class = log cmin, lowest concentration with invasion grade I or II) is listed as −2 (about 0.01). The “reduction in mitochondrial activity” value in the assay with 3T3-L1 cells is 30%.
